{"source": "ChEMBL document CHEMBL1275415", "about": "“The antimicrobial peptide NK-2, the core region of mammalian NK-lysin, kills intraerythrocytic Plasmodium falciparum” (Antimicrob Agents Chemother, 2008)", "key": {"Plasmodium falciparum [1]": {"system": "Plasmodium falciparum", "experiment": "Antiplasmodial activity against Plasmodium falciparum 3D7 trophozoite infected in human RBC assessed as partial induction of hemolysis at 0.1 to 100 uM after 1 hrs by spectrophotometry in presence of > 100 ug/ml annexin V and calcium", "type": "functional, organism-based"}, "Plasmodium falciparum [2]": {"system": "Plasmodium falciparum", "experiment": "Antiplasmodial activity against Plasmodium falciparum 3D7 assessed as reduction in parasite viability at 6.2 uM after 45 hrs by fluorospectrometry", "type": "functional", "conditions": "3D7, 45 h"}, "Plasmodium falciparum [3]": {"system": "Plasmodium falciparum", "experiment": "Antiplasmodial activity against Plasmodium falciparum 3D7 trophozoites infected in human RBC assessed as induction of hemolysis at 5 to 20 uM after 2 hrs by spectrophotometry", "type": "functional, organism-based"}, "Plasmodium falciparum [4]": {"system": "Plasmodium falciparum", "experiment": "Antiplasmodial activity against Plasmodium falciparum 3D7 schizonts infected in human RBC assessed as induction of hemolysis at 5 to 20 uM after 2 hrs by spectrophotometry", "type": "functional, organism-based"}, "Plasmodium falciparum [5]": {"system": "Plasmodium falciparum", "experiment": "Antiplasmodial activity against Plasmodium falciparum 3D7 infected in human RBC assessed as appearance of hemozoin crystals at 10 uM after 1 hrs by light microscopy", "type": "functional, organism-based"}, "Plasmodium falciparum [6]": {"system": "Plasmodium falciparum", "experiment": "Antiplasmodial activity against Plasmodium falciparum 3D7 trophozoites infected in human RBC assessed as induction of hemolysis at 10 uM after 90 min by spectrophotometry", "type": "functional, organism-based"}, "Plasmodium falciparum [7]": {"system": "Plasmodium falciparum", "experiment": "Antiplasmodial activity against Plasmodium falciparum 3D7 infected in human RBC assessed as permeabilization of plasma membrane at 5 uM after 20 to 120 min by sytox green dye uptake assay", "type": "functional, organism-based"}, "Plasmodium falciparum [8]": {"system": "Plasmodium falciparum", "experiment": "Antiplasmodial activity against Plasmodium falciparum 3D7 infected in human RBC assessed as permeabilization of plasma membrane at 10 uM after 20 to 120 min by sytox green dye uptake assay", "type": "functional, organism-based"}, "Plasmodium falciparum [9]": {"system": "Plasmodium falciparum", "experiment": "Antiplasmodial activity against Plasmodium falciparum 3D7 infected in human RBC assessed as permeabilization of plasma membrane at > 20 uM after 20 to 120 min by sytox green dye uptake assay", "type": "functional, organism-based"}, "Plasmodium falciparum [10]": {"system": "Plasmodium falciparum", "experiment": "Antiplasmodial activity against Plasmodium falciparum 3D7 trophozoite infected in human RBC assessed as partial induction of hemolysis at 0.1 to 100 uM after 1 hrs by spectrophotometry in presence of 100 ug/ml annexin V and calcium", "type": "functional, organism-based"}, "Plasmodium falciparum [11]": {"system": "Plasmodium falciparum", "experiment": "Antiplasmodial activity against Plasmodium falciparum 3D7 assessed as reduction in parasite viability after 45 hrs by fluorospectrometry", "type": "functional, organism-based"}, "[12]": {"experiment": "Cytotoxicity against human RBC assessed as induction of hemolysis at 5 to 20 uM after 2 hrs by spectrophotometry", "type": "cell-based", "conditions": "erythrocyte"}}, "note": "The source made the active and inactive calls. The rule behind the calls is not given here."}
{"substance": "H-KILRGVCKKIMRTFLRRISKDILTGKK-OH", "values": [{"measurement": "Activity", "setting": "Plasmodium falciparum [1]", "value": "inactive"}, {"measurement": "inhibition at 6.2 µM", "setting": "Plasmodium falciparum [2]", "value": 50, "unit": "%"}, {"measurement": "Activity", "setting": "Plasmodium falciparum [3]", "value": "Active"}, {"measurement": "Activity", "setting": "Plasmodium falciparum [4]", "value": "Active"}, {"measurement": "Activity", "setting": "Plasmodium falciparum [5]", "value": "Active"}, {"measurement": "Activity", "setting": "Plasmodium falciparum [6]", "value": "Active"}, {"measurement": "Activity", "setting": "Plasmodium falciparum [7]", "value": "Active"}, {"measurement": "Activity", "setting": "Plasmodium falciparum [8]", "value": "Active"}, {"measurement": "Activity", "setting": "Plasmodium falciparum [9]", "value": "inactive"}, {"measurement": "Activity", "setting": "Plasmodium falciparum [10]", "value": "Active"}, {"measurement": "inhibition", "setting": "Plasmodium falciparum [11]", "value": "Dose-dependent effect"}, {"measurement": "Activity", "setting": "[12]", "value": "Non-toxic"}]}
